# Assay results published in patent publication US20210262025A1, “MULTIPLEXED IN VIVO DISEASE SENSING WITH NUCLEIC ACID-BARCODED REPORTERS” (Massachusetts Institute of Technology, priority 2020, published 2021).
# “Also recorded” adds a separate entry of the source. Strand notation (5' to 3'): a small letter for the sugar, then the base; units joined by * are phosphorothioate-linked, units joined directly phosphodiester-linked; [ ] holds rarer units or linkages, { } end groups; capitals alone tell only the bases. Primed or numbered codes have the meaning given here. Where no end group is shown, it is not given here. [ ]: non-standard residue; d: D form. The star is where a group is joined. 5FAM = O=C1OC2(c3ccc(O)cc3Oc3cc(O)ccc32)c2ccc(C(=O)*)cc21; PEG2′ = not defined here; d = 2'-deoxy (DNA); CPQ2 = quencher
# T1: FRET-PAP11
# T1 sequence: GGGSGRSANAKGKGC
# B1: cMET nanobody: PLAU-activated, cMET-targeting nanobody with rigid linker, PLAU substrate and unpaired cysteine, SEQ ID NO: 71 (protein)
# VHH: MEVQLVESGGGLVQPGGSLRLSCAASGFILDYYAIGWFRQAPGKEREGVLCIDASDDITYYADSVKGRFTISRDNAKNTVYLQMNSLKPEDTGVYYCATPIGLSSSCLLEYDYDYWGQGTLVTVSSGSHHHHHHSPSTPPTPSPSTPPGSGRSANAKGGGSC
# B2: cMET nanobody (PLAU-activated, cMET-targeting nanobody) (VHH)
# VHH: EVQLVESGGGLVQPGGSLRLSCAASGFILDYYAIGWFRQAPGKEREGVLCIDASDDITYYADSVKGRFTISRDNAKNTVYLQMNSLKPEDTGVYYCATPIGLSSSCLLEYDYDYWGQGTLVTVSS
# modifications: labelled with Sulfo-Cyanine7 NHS ester for the biodistribution study (sites not given)
# notes: also called C-met nanobodies; Nb-PAS
# B3: GFP nanobody: non-targeting nanobody against GFP (Clone LaG-16) with rigid linker, PLAU substrate and cysteine, SEQ ID NO: 72 (protein)
# VHH: MAQVQLVESGGRLVQAGDSLRLSCAASGRTFSTSAMAWFRQAPGREREFVAAITWTVGNTILGDSVKGRFTISRDRAKNTVDLQMDNLEPEDTAVYYCSARSRGYVLSVLRSVDSYDYWGQGTQVTVSGSHHHHHHSPSTPPTPSPSTPPGSGRSANAKGGGSC
# Assays:
# tumor tissue homogenates = test: Tissue lysate proteolytic cleavage assay of FRET-paired peptide substrates; format: biochemical, Balb/c mice; conditions: tumor-bearing or healthy lung tissue homogenates, ex vivo
# Protocol: FIGS. 6A-6E show experiments relating to portable monitoring invasive CRC using DNA-encoded multiplex synthetic urine biomarkers. […] Peptide cleavage kinetics were monitored and cleavage rates were plotted (n=5 mice per group; ±SEM; unpaired t-test with Welch's correction, **P<0.01, ****P<0.0001). […] All urine samples were collected at 1 h after sensor administration. Cas12a trans-cleavage assays were performed against each DNA-barcode with the fluorophore-quencher paired reporter. Initial reaction velocity (V0) of the Cas12a trans-cleavage assays were calculated and normalized to that of saline injected control animals (n=8 or 10 mice per group; ±SEM; unpaired t-test with Welch's correction, *P<0.05, **P<0.01). The initial reaction velocity (V0) refers to the slope of the curve at the beginning of a reaction. […] Band intensities were quantified using ImageJ. […] ROC analysis utilized ratio of quantified cleaved reporter band intensity over its corresponding control band intensity. Dashed line represents an AUC of 0.5, and a perfect AUC is 1.0.
# Tissue samples were homogenized in PBS and centrifuged at 4° C. for 5 min at 6,000×g. Supernatant was further centrifuged at 14,000×g for 25 min at 4° C. Protein concentration was measured using ThermoFisher BCA Protein Assay Kit and prepared at 2 mg/mL prior to assay. Assays were performed in the 384-well plate in triplicate in enzyme-specific buffer with peptides (1 μM) and cell lysates (0.33 mg/mL) in 30 μL at 37° C. Fluorescence was measured at Ex/Em 485/535 nm using a Tecan Infinite 200pro microplate reader (Tecan). Signal increase at 60 min was used across conditions.
# [1] = system: serine and metalloproteases; test: Recombinant protease substrate cleavage assay; format: biochemical
# Protocol: Fluorogenic protease substrates with fluorophore (FAM) and quencher (CPQ2) were synthesized by CPC Scientific Inc. Recombinant proteases were purchased from Enzo Life Sciences and R&D Systems. Assays were performed in the 384-well plate in triplicate in enzyme-specific buffer with peptides (1 μM) and proteases (40 nM) in 30 μL at 37° C. Fluorescence was measured at Ex/Em 485/535 nm using a Tecan Infinite 200pro microplate reader (Tecan). Signal increase at 60 min was used across conditions.
# FRET-PAP11 = system: T1, FRET-PAP11
# LbaCas12a [2] = test: Cas12a fluorescent cleavage assay with urine of mice injected with DNA activators; format: in vivo, Lachnospiraceae bacterium ND2006; conditions: urine collected after 1 h added to reaction
# Text: (§1) In particular, the Cas12a from Lachnospiraceae bacterium ND2006 (LbaCas12a, UniProtKB Accession No. A0A182DWE3) assembled with guide CRISPR RNA sequences (crRNAs) recognizes 1) a T nucleotide-rich protospacer-adjacent motif (PAM) to target double-stranded DNA (dsDNA), or 2) single-stranded DNA (ssDNA) through sequence complementarity in a PAM-independent manner, and unleashes a robust, nonspecific ssDNA trans-cleavage activity that can be monitored using a fluorophore (F)-quencher (Q)-labeled reporter (FIG. 2A) (Chen et al. Science 360, 436-439 (2018)). […] In Table 6, activation of Cas12a with native and modified DNA oligos was quantified in the Cas12a fluorescent cleavage assay. […]
# (§2) LbCas12a (final concentration 100 nM, New England Biolabs) was incubated with 1× NEB BUFFER™ 2.1, crRNA (250 nM, IDT) and complementary DNA activators (4 nM unless specifically described, IDT, in solution or spiked in urine) or urine samples collected from experimental animals at 37° C. for 30 min. […] LbCas12a activation was detected at 37° C. every 2 min for 3 hours by measuring fluorescence with plate reader Tecan Infinite Pro M200 (λex: 485 nm and λem: 535 nm). Fluorescence for background conditions (either no DNA activator input or no crRNA conditions) were run with each assay to generate background fluorescence as negative controls. […]
# LbaCas12a [3] = test: Cas12a fluorescent cleavage assay, DNA activators in solution; format: biochemical, Lachnospiraceae bacterium ND2006
# Text: as §1, §2
# subcutaneous PC-3 tumors = system: subcutaneous PC-3 tumors; set-up: species or system nude mice; conditions: mouse, in vivo
# Protocol: Studies were performed in experimental animals with near-infrared dye labeled agents to minimize interference from autofluorescent background. Balb/c mice were intravenously injected with Cy5-labeled modified or native DNA molecules at 1 nmol per mouse, n=3 per condition. Urine samples from each mouse was collected at 30 min, 1, 2, 3, 4 hours after injection. C-met nanobodies were coupled with Sulfo-Cyanine7 NHS ester (Lumiprobe), reacted overnight, purified by spin filtration and injected into PC-3 tumor-bearing nude mice (1.5 nmol dye eq. of protein) via i.v. injection. After 24 hours, mice were euthanized and necropsy was performed to remove the tumors, lungs, heart, kidneys, liver, and spleen. Urine, blood and organs were scanned using IVIS Imaging Systems and ODYSSEY® CLx (LI-COR). Organ fluorescence was quantified in ImageStudio of ODYSSEY® CLx. Blood circulatory kinetics were monitored in Balb/c mice by serial blood draws at 10 min, 30 min, 120 min and 180 min after i.v. injection of Cy5-labeled DNA or PEG at 1 nmol dye per mouse. Blood for pharmacokinetics measurements was collected using tail vain bleeds. Blood was diluted in PBS with 5 mM EDTA to prevent clotting, centrifuged for 5 min at 5,000×g, and fluorescent reporter concentration was quantified in 384-well plates relative to standards (LI-COR ODYSSEY® CLx).
# [4] = Solubility of purified recombinant nanobody; format: physicochemical; conditions: after affinity and size-exclusion chromatography
# Text: One major challenge for diagnosis and therapy of cancer is tailoring multiple disease signatures, which are defined by biological differences spanning genetic, transcriptomic, and proteomic differences between tumor and healthy tissue, while minimizing off-target effects (Hunter, K. Nature reviews. Cancer 2006, 6, 141). To this end, a tumor-targeting nanobody was re-engineered to construct protease-activatable nanobodies through programmable genetic encoding (FIGS. 5A-5B). Protease-activatable nanobodies were constructed by inserting a well characterized PLAU substrate (PQ2: GGSGRSANAK (SEQ ID NO: 3)) with an unpaired cysteine for one-step site-specific labeling of cargos via a thio-ether bond (see, e.g., Masa et al., Bioconjugate chemistry 2014, 25, 979). The cysteine was introduced at the carboxyl terminus, positioning the conjugation-site on the opposite side of the antigen-binding region to avoid antigen binding interference. To prevent possible misfolding caused by the internal disulfide bond present in the Nb, the peptide substrate with cysteine is spaced by a rigid linker (SPSTPPTPSPSTPP (SEQ ID NO: 6)) from the Nb sequence.
# cMET = target: T2, cMET (human, UniProt P08581 25-1390); test: in vivo biodistribution (IVIS imaging) of Cy7-labelled nanobody after i.v. injection into nude mice bearing cMET-expressing PC-3 xenografts
# T2 construct: whole, on cells; The target is presented on cMET- and PLAU-expressing tumors derived from PC-3 cells in nude mice; It is not a purified protein
# T2 sequence (P08581 25-1390): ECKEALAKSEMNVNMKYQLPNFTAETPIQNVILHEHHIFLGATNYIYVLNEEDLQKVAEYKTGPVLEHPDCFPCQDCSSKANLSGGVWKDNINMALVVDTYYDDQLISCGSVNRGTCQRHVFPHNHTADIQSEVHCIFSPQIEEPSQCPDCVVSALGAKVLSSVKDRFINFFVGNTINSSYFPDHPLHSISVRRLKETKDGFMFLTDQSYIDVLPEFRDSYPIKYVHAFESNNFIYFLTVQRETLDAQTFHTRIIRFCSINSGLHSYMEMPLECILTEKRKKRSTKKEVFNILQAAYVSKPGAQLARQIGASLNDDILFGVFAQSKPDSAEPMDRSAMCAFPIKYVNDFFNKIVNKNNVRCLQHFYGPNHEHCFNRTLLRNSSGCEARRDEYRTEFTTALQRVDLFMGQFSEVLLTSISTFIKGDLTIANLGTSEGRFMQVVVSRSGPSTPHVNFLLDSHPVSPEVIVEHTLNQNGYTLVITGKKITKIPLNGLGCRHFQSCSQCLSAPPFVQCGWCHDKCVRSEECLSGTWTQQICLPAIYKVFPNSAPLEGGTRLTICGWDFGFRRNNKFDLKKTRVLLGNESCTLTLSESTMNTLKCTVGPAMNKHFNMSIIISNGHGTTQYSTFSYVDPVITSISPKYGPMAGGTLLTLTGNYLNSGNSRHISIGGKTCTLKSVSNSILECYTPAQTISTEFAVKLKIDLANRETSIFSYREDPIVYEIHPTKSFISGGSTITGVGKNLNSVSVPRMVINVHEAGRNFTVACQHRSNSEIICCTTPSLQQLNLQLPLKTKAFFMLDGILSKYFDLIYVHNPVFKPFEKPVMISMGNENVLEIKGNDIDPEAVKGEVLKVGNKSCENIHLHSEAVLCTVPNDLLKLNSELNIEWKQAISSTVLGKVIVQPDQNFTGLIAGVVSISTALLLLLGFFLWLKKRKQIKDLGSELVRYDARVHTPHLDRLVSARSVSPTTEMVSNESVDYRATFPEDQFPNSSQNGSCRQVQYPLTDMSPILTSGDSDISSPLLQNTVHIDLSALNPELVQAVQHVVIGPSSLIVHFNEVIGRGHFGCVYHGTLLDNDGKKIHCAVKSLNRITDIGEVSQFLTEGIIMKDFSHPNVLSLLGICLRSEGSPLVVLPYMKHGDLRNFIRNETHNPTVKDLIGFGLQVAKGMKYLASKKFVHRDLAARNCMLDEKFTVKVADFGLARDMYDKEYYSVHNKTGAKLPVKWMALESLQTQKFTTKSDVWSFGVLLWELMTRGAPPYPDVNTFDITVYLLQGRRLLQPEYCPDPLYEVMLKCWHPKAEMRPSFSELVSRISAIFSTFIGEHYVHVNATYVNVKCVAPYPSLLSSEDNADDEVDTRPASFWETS
molecule,measurement,setting,value
FRET-PAP13: 5FAM-GGVPRGG-K(CPQ2)-PEG2-GC (SEQ ID NO: 67) (5FAM-GGVPRGGK(CPQ2)[PEG2′]GC),cleavage by tissue homogenates,tumor tissue homogenates,specifically cleaved
FRET-PAP7: 5FAM-GGPLGVRGKK(CPQ2)-PEG2-GC (SEQ ID NO: 61) (5FAM-GGPLGVRGKK(CPQ2)[PEG2′]GC),cleavage by tissue homogenates,tumor tissue homogenates,specifically cleaved
FRET-PAP9: 5FAM-GGfPRSGGGK(CPQ2)-PEG2-GC (SEQ ID NO: 63),cleavage by tissue homogenates,tumor tissue homogenates,specifically cleaved; also recorded: distinct cleavage patterns
same,cleavage by recombinant proteases in vitro,[1],cleaved by serine and metalloproteases in vitro
FRET-PAP11: 5FAM-GGGSGRSANAKG-K(CPQ2)-PEG2-GC (SEQ ID NO: 65) (5FAM-GGGSGRSANAKGK(CPQ2)[PEG2′]GC),cleavage by tissue homogenates,tumor tissue homogenates,specifically cleaved
"PLAU (urokinase-type plasminogen activator), recombinant","cleavage of FRET-paired peptide substrate by recombinant protease (fluorogenic activity assay, FIG. 13D)",FRET-PAP11,The peptide substrate specifically responded to the PCa-associated protease PLAU
"Mod 10 mer: fully phosphorothioate-modified ssDNA activator, SEQ ID NO: 35 (DNA dC*dG*dT*dA*dA*dC*dG*dA*dT*dC)",Modified DNA in vivo (V0),LbaCas12a [2]; 1 nmol modified DNA activator injected into healthy Balb/c mice,0.01
same,Modified DNA in vitro (V0),"LbaCas12a [3]; initial reaction velocity (slope at beginning of reaction), 4 nM of phosphorothioate-modified DNA activator per reaction",0.01
10 mer: native ssDNA activator CGTAACGATC (SEQ ID NO: 28) (unmodified DNA),Native DNA in vivo (V0),LbaCas12a [2]; 1 nmol native DNA activator injected into healthy Balb/c mice,0.00
same,Native DNA in vitro (V0),"LbaCas12a [3]; initial reaction velocity, 4 nM of native DNA activator per reaction",0.00
B1,tumor trafficking upon systemic administration,subcutaneous PC-3 tumors,mediated active tumor trafficking
same,solubility,[4],comparable solubility with the original Nb
B2,binding result,cMET,binds
B3,tumor trafficking upon systemic administration,subcutaneous PC-3 tumors,did not
